In general, IC50 refers to the concentration needed to halve the response being measured. The term pKa denotes the negative logarithm of the acid dissociation constant. A high value points to a weaker acid or stronger base.

The results in this text go back to ChEMBL document CHEMBL1921721, “Benzenepolycarboxylic acids with potential anti-hemorrhagic properties and structure-activity relationships” (Bioorg Med Chem, 2011).

Series [1] relates to Mus musculus. The experiment in a line: Antihemorrhagic activity in ddY mouse assessed as inhibition of Protobothrops flavoviridis venom-induced hemorrhagic lesion formation compound incubated with venom for 10 mins and administered subcutaneously measured after 24 hrs. It counts as functional, organism-based.
A short description of series [2]: Dissociation constant, pKa of the compound. It counts as physicochemical.
The test system of series [3] is Mus musculus. As to the kind of experiment: Ratio of benzoic acid IC50 to compound IC50 for antihemorrhagic activity in ddY mouse assessed as inhibition of Protobothrops flavoviridis venom-induced hemorrhagic lesion formation compound incubated with venom for 10 mins and administered subcutaneously measured after 24 hrs. It counts as functional.
For series [4], the system named is Mus musculus. As to the kind of experiment: Ratio of caffeic acid IC50 to compound IC50 for antihemorrhagic activity in ddY mouse assessed as inhibition of Protobothrops flavoviridis venom-induced hemorrhagic lesion formation compound incubated with venom for 10 mins and administered subcutaneously measured after 24 hrs. It counts as functional.

As to `O=C(O)c1ccccc1O` [SALICYLIC ACID], in the series on Mus musculus [1], the half-maximal inhibitory concentration (IC50) came to 0.2 µM.
In series [2], `O=C(O)/C=C/c1ccc(O)c(O)c1` [CAFFEIC ACID] yielded a pKa of 4.58.
`O=C(O)c1ccc([N+](=O)[O-])cc1` [4-NITROBENZOIC ACID] gave a pKa in series [2] of 3.42. Also, the IC50 in the series on Mus musculus [1] is 0.24 µM.
In the case of `O=C(O)c1ccc(O)cc1` [PARABEN], the pKa in series [2] stood at 4.57. The IC50 in the series on Mus musculus [1] was 0.2 µM.
As for `O=C(O)/C=C/C=C/C(=O)O`, in the series with Mus musculus [1], the IC50 came out at 0.11 µM.
For `O=C(O)c1cccc(C(=O)O)c1` [ISOPHTHALIC ACID], the “Ratio IC50” value in the series with Mus musculus [3] and with Mus musculus [4] was 2 in each case. For the same molecule, in the series with Mus musculus [1], the IC50 stood at 0.1 µM.
In the case of `O=C(O)c1ccccc1Cl`, the pKa in series [2] is 2.97. Also, the IC50 in the series with Mus musculus [1] is 0.25 µM.
In the same order, the values of `O=C(O)c1ccc(C(=O)O)c(C(=O)O)c1` are 2.84 and 0.062 µM.
As to `O=C(O)c1ccc(C(=O)O)cc1` [TEREPHTHALIC ACID], the “Ratio IC50” value in the series on Mus musculus [3] and in the series on Mus musculus [4] was 2 throughout. Moreover, the IC50 in the series on Mus musculus [1] turned out to be 0.09 µM.
As for `O=C(O)c1ccccc1` [BENZOIC ACID], the IC50 in the series with Mus musculus [1] came out at 0.2 µM.
Same read-out and setting: under `O=C(O)c1ccccc1[N+](=O)[O-]` stands 0.26 µM.
`Cc1ccc(C(=O)O)cc1` [4-METHYLBENZOIC ACID] gave a pKa in series [2] of 4.37. For the same molecule, the IC50 with Mus musculus [1] came to 0.22 µM.
The molecule `O=C(O)c1c(C(=O)O)c(C(=O)O)c(C(=O)O)c(C(=O)O)c1C(=O)O` [MELLITIC ACID] showed a pKa in series [2] of 1.15. For the same molecule, in the series on Mus musculus [1], the IC50 is 0.043 µM.
`O=C(O)c1ccccc1C(=O)O` [PHTHALIC ACID]: the “Ratio IC50” value in the series with Mus musculus [3] and in the series with Mus musculus [4] was 2 each time. Besides, the IC50 in the series on Mus musculus [1] came to 0.1 µM.
In series [2], `O=C(O)c1cc(C(=O)O)cc(C(=O)O)c1` registered a pKa of 2.98. For the same molecule, in the series on Mus musculus [1], the IC50 is 0.067 µM.
In the same order, the values of `O=C(O)c1cc(C(=O)O)c(C(=O)O)cc1C(=O)O` [PYROMELLITIC ACID] are 1.87 and 0.035 µM.
In the same order, the values of `O=C(O)c1cccc(O)c1` [3-HYDROXYBENZOIC ACID] are 4.08 and 0.2 µM.
`O=C(O)c1cc(C(=O)O)c(C(=O)O)c(C(=O)O)c1C(=O)O` [BENZENEPENTACARBOXYLIC ACID]: the pKa in series [2] stood at 1.93. In the series on Mus musculus [1], the IC50 was determined as 0.043 µM.
